pIC50: −log10 of the molar value. Structures can show the parent of a compound that is named as a salt.

Results on 18 compounds are retold here after patent US20250129078A1, “ERBB2 INHIBITORS” (Cogent Biosciences, Inc., priority 2023, published 2025).

This assay has as its target EGFR WT (Homo sapiens (Human), UniProt P00533). As to the kind of experiment: ErbB enzyme assay (CisBio HTRF-KinEASE-TK), EGFR WT. The class given is biochemical. Conditions: ATP at Km (25 μM), 1 h incubation. In outline:
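HTRF KinEASE-TK kinase reactions ran 1 h at ambient temperature with three-fold serial compound dilutions, then were quenched with Sa-XL665 and TK-Ab-Cryptate. After 1 h more, 655/620 nm time-resolved fluorescence gave percent of control; a 4-parameter logistic fit defined IC50 at 50 POC.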
Background: Time-resolved FRET reads energy transfer from a long-lived donor to a nearby acceptor.

Sequence of EGFR WT (P00533 25-1210): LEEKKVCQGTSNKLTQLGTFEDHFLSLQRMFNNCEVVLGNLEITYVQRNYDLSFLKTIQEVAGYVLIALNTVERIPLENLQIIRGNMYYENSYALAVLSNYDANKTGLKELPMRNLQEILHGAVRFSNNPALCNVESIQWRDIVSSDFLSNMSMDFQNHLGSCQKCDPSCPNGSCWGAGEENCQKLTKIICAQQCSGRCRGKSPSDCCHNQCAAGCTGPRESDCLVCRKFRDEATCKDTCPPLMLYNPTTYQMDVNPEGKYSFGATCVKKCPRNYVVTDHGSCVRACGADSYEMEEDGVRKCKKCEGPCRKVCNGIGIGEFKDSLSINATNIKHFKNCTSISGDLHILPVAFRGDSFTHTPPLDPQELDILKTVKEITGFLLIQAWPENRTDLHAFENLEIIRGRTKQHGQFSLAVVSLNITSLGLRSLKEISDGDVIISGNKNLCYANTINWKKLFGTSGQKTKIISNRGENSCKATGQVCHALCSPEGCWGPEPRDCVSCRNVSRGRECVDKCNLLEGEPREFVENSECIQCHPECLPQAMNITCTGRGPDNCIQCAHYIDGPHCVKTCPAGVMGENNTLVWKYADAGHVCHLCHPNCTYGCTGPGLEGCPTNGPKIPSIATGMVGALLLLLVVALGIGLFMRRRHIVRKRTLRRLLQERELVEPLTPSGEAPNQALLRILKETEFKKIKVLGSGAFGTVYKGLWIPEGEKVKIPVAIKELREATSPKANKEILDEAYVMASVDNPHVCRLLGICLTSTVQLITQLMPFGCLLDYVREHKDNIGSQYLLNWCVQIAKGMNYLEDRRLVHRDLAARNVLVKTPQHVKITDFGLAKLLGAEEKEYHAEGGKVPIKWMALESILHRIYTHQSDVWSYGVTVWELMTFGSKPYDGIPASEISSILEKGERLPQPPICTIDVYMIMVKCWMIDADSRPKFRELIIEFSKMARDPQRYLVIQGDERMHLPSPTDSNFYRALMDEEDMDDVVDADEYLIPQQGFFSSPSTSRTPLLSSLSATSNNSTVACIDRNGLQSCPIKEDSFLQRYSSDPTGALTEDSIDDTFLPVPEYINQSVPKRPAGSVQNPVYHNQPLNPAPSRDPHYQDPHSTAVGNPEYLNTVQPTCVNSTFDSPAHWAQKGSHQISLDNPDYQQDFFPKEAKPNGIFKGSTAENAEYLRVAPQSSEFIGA

Consider `C=CC(=O)N1CCC(Oc2ncc3ncnc(Nc4ccc(Oc5ccc6c(c5)nnn6C)c(C)c4)c3n2)CC1` [Compound 390, 1-(4-((8-((3-methyl-4-((1-methyl-1H-benzo[d][1,2,3]triazol-5-yl)oxy)phenyl)amino)pyrimido[5,4-d]pyrimidin-2-yl)oxy)piperidin-1-yl)prop-2-en-1-one], for which the pIC50 – broadly, the IC50 on a negative log10 scale, so that one unit is a factor of ten – was over 7.30.
The value for `C=C(F)C(=O)N1C2C=C(c3ccc4ncnc(Nc5ccc(Oc6ccc7c(c6)nnn7C)c(C)c5)c4n3)CC1CCC2` (stereo not drawn) [Compound 406, 2-fluoro-1-(3-(4-((3-methyl-4-((1-methyl-1H-benzo[d][1,2,3]triazol-5-yl)oxy)phenyl)amino)pyrido[3,2-d]pyrimidin-6-yl)-9-azabicyclo[3.3.1]non-2-en-9-yl)prop-2-en-1-one trifluoroacetate] was at most 6.00; that for `C=CC(=O)N1CCN(c2ncc3ncnc(Nc4cc(F)c(Oc5ccc6c(c5)nnn6C)c(Cl)c4)c3n2)C[C@H]1C` [Compound 194, (R)-1-(4-(8-((3-chloro-5-fluoro-4-((1-methyl-1H-benzo[d][1,2,3]triazol-5-yl)oxy)phenyl)amino)pyrimido[5,4-d]pyrimidin-2-y1)-2-methylpiperazin-1-yl)prop-2-en-1-one] was over 7.30.
For the compound `C=CC(=O)N1CCN(c2ncc3ncnc(Nc4ccc(Oc5ccc6c(c5)nnn6C)c(C)c4)c3n2)C[C@H]1COC` [Compound 120, (S)-1-(2-(methoxymethyl)-4-(8-((3-methyl-4-((1-methyl-1H-benzo[d][1,2,3]triazol-5-yl)oxy)phenyl)amino)pyrimido[5,4-d]pyrimidin-2-y1)piperazin-1-yl)prop-2-en-1-one], the pIC50 was 7.00 to 7.30.
In turn, `C=CC(=O)N1CCN(c2ncc3ncnc(Nc4ccc(Oc5ccc6c(c5)nnn6C)c(F)c4F)c3n2)CC1` [Compound 10, 1-(4-(8-((2,3-difluoro-4-((1-methyl-1H-benzo[d][1,2,3]triazol-5-yl)oxy)phenyl)amino)pyrimido[5,4-d]pyrimidin-2-yl)piperazin-1-yl)prop-2-en-1-one] gave a pIC50 of 6.30 to 7.00.
The value for `C=CC(=O)N1CCN(c2ncc3ncnc(Nc4ccc(Oc5cnn6ccnc6c5)c(C)c4F)c3n2)CC1` [Compound 237, 1-(4-(8-((2-fluoro-4-(imidazo[1,2-b]pyridazin-7-yloxy)-3-methylphenyl)amino)pyrimido[5,4-d]pyrimidin-2-yl)piperazin-1-yl)prop-2-en-1-one] was over 7.30; that for `C=CC(=O)N1CCN(c2ccc3ncnc(Nc4ccc(Oc5cc(F)c6c(c5)nnn6C)c(C)c4)c3n2)CC1` [Compound 97, 1-(4-(4-((4-((7-fluoro-1-methyl-1H-benzo[d][1,2,3]triazol-5-yl)oxy)-3-methylphenyl)amino)pyrido[3,2-d]pyrimidin-6-yl)piperazin-1-yl)prop-2-en-1-one] was over 7.30.
Consider `C=CC(=O)N1CCC(Oc2ncc3ncnc(Nc4ccc(Oc5cc(F)c6c(c5)ncn6C)c(C)c4)c3n2)CC1` [Compound 381, 1-(4-((8-((4-((7-fluoro-1-methyl-1H-benzo[d]imidazol-5-yl)oxy)-3-methylphenyl)amino)pyrimido[5,4-d]pyrimidin-2-yl)oxy)piperidin-1-yl)prop-2-en-1-one], for which the pIC50 is over 7.30.
The value for `C=CC(=O)N1CCN(c2ccc3ncnc(Nc4cc(C)c(Oc5ccc6c(c5)nnn6C)cc4OC(F)F)c3n2)C[C@H]1C` [Compound 302, (R)-1-(4-(4-((2-(difluoromethoxy)-5-methyl-4-((1-methyl-1H-benzo[d][1,2,3]triazol-5-yl)oxy)phenyl)amino)pyrido[3,2-d]pyrimidin-6-yl)-2-methylpiperazin-1-yl)prop-2-en-1-one] was 6.30 to 7.00; that for `C=CC(=O)N1[C@@H](C)CN(c2ncc3ncnc(Nc4ccc(Oc5ccc6c(c5)nnn6C)c(C)c4)c3n2)C[C@@H]1C` [Compound 184, 1-((2S,6S)-2,6-dimethyl-4-(8-((3-methyl-4-((1-methyl-1H-benzo[d][1,2,3]triazol-5-yl)oxy)phenyl)amino)pyrimido[5,4-d]pyrimidin-2-yl)piperazin-1-yl)prop-2-en-1-one] was at most 6.00; that for `C=CC(=O)N[C@@H]1CCN(c2ccc3ncnc(Nc4ccc(Oc5ccc6c(c5)nnn6C)c(C)c4F)c3n2)CC1(C)C` [Compound 344, (R)-N-(1-(4-((2-fluoro-3-methyl-4-((1-methyl-1H-benzo[d][1,2,3]triazol-5-yl)oxy)phenyl)amino)pyrido[3,2-d]pyrimidin-6-yl)-3,3-dimethylpiperidin-4-yl)acrylamide] was 6.30 to 7.00.
The value for `C=CC(=O)N1CC[C@H](N(C)c2ncc3ncnc(Nc4ccc(Oc5ccc6c(c5)nnn6C)c(C)c4)c3n2)C1` [Compound 131, (S)-1-(3-(methyl(8-((3-methyl-4-((1-methyl-1H-benzo[d][1,2,3]triazol-5-yl)oxy)phenyl)amino)pyrimido[5,4-d]pyrimidin-2-yl)amino)pyrrolidin-1-yl)prop-2-en-1-one] was over 7.30; that for `C=CC(=O)N[C@H]1CCCN(c2ncc3ncnc(Nc4ccc(Oc5ccc6c(c5)nnn6C)c(C)c4)c3n2)C1` [Compound 126, (S)-N-(1-(8-((3-methyl-4-((1-methyl-1H-benzo[d][1,2,3]triazol-5-yl)oxy)phenyl)amino)pyrimido [5,4-d]pyrimidin-2-yl)piperidin-3-yl)acrylamide] was 6.00 to 6.30.
Under `C=CC(=O)N1CCN(c2ccc3ncnc(Nc4ccc(Oc5ccc6c(c5)nnn6C)c(C)c4)c3n2)CC1` [Compound 92, 1-(4-(4-((3-methyl-4-((1-methyl-1H-benzo[d][1,2,3]triazol-5-yl)oxy)phenyl)amino)pyrido[3,2-d]pyrimidin-6-yl)piperazin-1-yl)prop-2-en-1-one] stands 7.00 to 7.30; under `C=C(COC)C(=O)N1CCN(c2ncc3ncnc(Nc4ccc(Oc5ccc6c(c5)nnn6C)c(C)c4)c3n2)CC1` [Compound 54, 2-(methoxymethyl)-1-(4-(8-((3-methyl-4-((1-methyl-1H-benzo[d][1,2,3]triazol-5-yl)oxy)phenyl)amino)pyrimido [5,4-d]pyrimidin-2-yl)piperazin-1-yl) prop-2-en-1-one], at most 6.00; under `C=CC(=O)N1CCN(c2ncc3ncnc(Nc4ccc(Oc5ccc6c(c5)nnn6C)c(C)c4F)c3n2)CC1` [Compound 7, 1-(4-(8-((2-fluoro-3-methyl-4-((1-methyl-1H-benzo[d][1,2,3]triazol-5-yl)oxy)phenyl)amino)pyrimido [5,4-d]pyrimidin-2-y1)piperazin-1-yl)prop-2-en-1-one], over 7.30.
`C=CC(=O)N1CCC=C(c2ccc3ncnc(Nc4ccc(Oc5ccc6c(c5)nnn6C)c(C)c4)c3n2)C1` [Compound 407, 1-(5-(4-((3-methyl-4-((1-methyl-1H-benzo[d][1,2,3]triazol-5-yl)oxy)phenyl)amino)pyrido[3,2-d]pyrimidin-6-yl)-3,6-dihydropyridin-1(2H)-yl)prop-2-en-1-one]: the pIC50 was over 7.30.
`C=CC(=O)N1CCN(c2ncc3ncnc(Nc4ccc(Oc5ccc6c(c5)ncn6C(F)F)c(C)c4)c3n2)C[C@H]1C` [Compound 162, (R)-1-(4-(8-((4-((1-(difluoromethyl)-1H-benzo[d]imidazol-5-yl)oxy)-3-methylphenyl)amino)pyrimido[5,4-d]pyrimidin-2-y1)-2-methylpiperazin-1-yl)prop-2-en-1-one] had a pIC50 of 6.30 to 7.00.
